In ChEMBL document CHEMBL5113492, “Design, synthesis, and biological evalution of bifunctional inhibitors against Hsp90-HDAC6 interplay” (Eur J Med Chem, 2022):
Active and inactive are the calls of the source. No cut-off for these calls is given here.

What was measured:
[1] = biological target: T1, Protein deacetylase HDAC6 (Homo sapiens) (UniProt Q9UBN7); experiment: Inhibition of HDAC6 in human NCI-H1975 cells assessed as increase in acetylation of alpha tubulin at 1 uM incubated for 24 hrs by DAPI staining based immunofluorescence microscopy; assay type: cell-based
T1 sequence (whole entry): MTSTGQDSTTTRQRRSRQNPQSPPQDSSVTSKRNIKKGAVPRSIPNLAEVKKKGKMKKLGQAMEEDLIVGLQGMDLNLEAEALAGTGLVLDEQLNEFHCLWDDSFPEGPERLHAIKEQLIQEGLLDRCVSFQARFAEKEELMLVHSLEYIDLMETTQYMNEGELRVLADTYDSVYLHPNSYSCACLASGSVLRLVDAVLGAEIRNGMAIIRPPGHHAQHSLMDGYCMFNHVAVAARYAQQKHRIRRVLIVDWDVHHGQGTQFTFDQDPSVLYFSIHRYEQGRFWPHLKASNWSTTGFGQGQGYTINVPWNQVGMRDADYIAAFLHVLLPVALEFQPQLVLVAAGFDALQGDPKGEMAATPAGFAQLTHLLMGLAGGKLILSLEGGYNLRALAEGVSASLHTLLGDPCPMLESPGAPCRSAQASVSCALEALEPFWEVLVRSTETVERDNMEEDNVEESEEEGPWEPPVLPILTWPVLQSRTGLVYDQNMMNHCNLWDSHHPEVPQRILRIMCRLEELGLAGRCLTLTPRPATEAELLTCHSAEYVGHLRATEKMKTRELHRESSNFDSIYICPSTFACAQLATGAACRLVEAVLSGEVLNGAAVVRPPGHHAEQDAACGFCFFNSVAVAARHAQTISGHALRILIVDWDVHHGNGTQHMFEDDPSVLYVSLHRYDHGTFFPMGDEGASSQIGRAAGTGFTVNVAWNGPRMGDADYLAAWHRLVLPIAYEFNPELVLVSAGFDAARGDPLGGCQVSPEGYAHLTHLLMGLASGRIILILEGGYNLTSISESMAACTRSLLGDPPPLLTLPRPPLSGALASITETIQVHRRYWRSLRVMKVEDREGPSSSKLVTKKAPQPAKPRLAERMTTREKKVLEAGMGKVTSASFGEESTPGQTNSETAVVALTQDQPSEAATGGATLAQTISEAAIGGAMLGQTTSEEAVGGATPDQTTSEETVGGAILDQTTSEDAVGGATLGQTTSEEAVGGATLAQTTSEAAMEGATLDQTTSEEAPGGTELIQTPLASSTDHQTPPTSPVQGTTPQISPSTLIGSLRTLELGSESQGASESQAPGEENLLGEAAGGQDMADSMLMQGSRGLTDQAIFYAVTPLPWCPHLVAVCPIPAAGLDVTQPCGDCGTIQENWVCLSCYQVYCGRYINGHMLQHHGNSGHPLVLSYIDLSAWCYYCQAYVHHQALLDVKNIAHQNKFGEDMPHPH

Mus musculus [2] = experiment: In vivo inhibition of HDAC1 in human NCI-H1975 cells xenografted with NSG mouse assessed as increase in acetylation of Histone H3 at 25 mg/kg,ip measured after 6 weeks by immunohistochemistry analysis; assay type: functional, organism-based
Mus musculus [3] = experiment: In vivo inhibition of HSP90 in human NCI-H1975 cells xenografted with NSG mouse assessed as downregulation of EGFR expression at 50 mg/kg,ip measured after 6 weeks by immunohistochemistry analysis; assay type: functional, organism-based
[4] = biological target: T2, Heat shock protein HSP90 (Homo sapiens) (UniProt P07900+P08238); experiment: Inhibition of HSP90 in human NCI-H1975 cells assessed as upregulation of HSP70 expression at 0.05 to 2 uM incubated for 24 hrs by western blot analysis; assay type: cell-based; settings: dose 0.05-2 µM, DDE = dose-dependent effect
NCI-H1975 [5] = experiment: Induction of apoptosis in human NCI-H1975 cells assessed as PARP cleavage at 0.05 to 2 uM incubated for 24 hrs by western blot analysis; assay type: functional, cell-based; settings: dose 0.05-2 µM, DDE = dose-dependent effect
[6] = biological target: Histone deacetylase 1 (Homo sapiens) (UniProt Q13547); experiment: Inhibition of HDAC1 in human NCI-H1975 cells assessed as increase in acetylation of Histone H3 at 2 uM incubated for 24 hrs by western blot analysis; assay type: cell-based
Sequence of Histone deacetylase 1 (Homo sapiens) (Q13547 whole entry): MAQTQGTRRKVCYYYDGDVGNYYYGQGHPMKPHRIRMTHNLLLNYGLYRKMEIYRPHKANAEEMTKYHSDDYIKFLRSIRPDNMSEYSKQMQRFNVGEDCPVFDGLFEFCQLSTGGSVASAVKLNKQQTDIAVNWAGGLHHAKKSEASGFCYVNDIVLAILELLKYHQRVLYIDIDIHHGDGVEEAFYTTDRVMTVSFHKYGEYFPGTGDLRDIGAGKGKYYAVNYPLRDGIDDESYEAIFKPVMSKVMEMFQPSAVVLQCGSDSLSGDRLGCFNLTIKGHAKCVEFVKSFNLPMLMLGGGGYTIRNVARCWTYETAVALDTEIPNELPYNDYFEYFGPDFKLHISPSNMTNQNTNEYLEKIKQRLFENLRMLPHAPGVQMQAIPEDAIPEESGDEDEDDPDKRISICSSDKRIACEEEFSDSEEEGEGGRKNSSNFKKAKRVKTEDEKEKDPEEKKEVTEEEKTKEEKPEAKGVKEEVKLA

[7] = Toxicity in NSG mouse xenografted with human NCI-H1975 cells assessed as histological abnormalities in ocular region at 25 mg/kg,ip measured after 6 weeks by H and E staining based assay; assay type: organism-based; settings: in vivo, 1008 h
NCI-H1975 [8] = experiment: Induction of apoptosis in human NCI-H1975 cells assessed as early apoptotic cells at 2 uM incubated for 24 hrs by Annexin-V/propidium iodide staining based flow cytometry analysis; assay type: functional
[9] = biological target: T1, Protein deacetylase HDAC6 (Homo sapiens); experiment: Inhibition of HDAC6 in human NCI-H1975 cells assessed as increase in acetylation of HSP90-Lys 294 residue at 2 uM incubated for 24 hrs by western blot analysis; assay type: cell-based
[10] = biological target: T2, Heat shock protein HSP90 (Homo sapiens); experiment: Inhibition of HSP90 in human NCI-H1975 cells assessed as downregulation of EGFR expression at 0.05 to 2 uM incubated for 24 hrs by western blot analysis; assay type: cell-based; settings: dose 0.05-2 µM, DDE = dose-dependent effect

CC(C)c1cc(C(=O)N(C)Cc2ccc(C(=O)NO)cc2)c(O)cc1O
inhibition [1]: Active
inhibition (Mus musculus [2]): Active
inhibition (Mus musculus [3]): Active
inhibition [4]: Dde
Activity (NCI-H1975 [5]): Dde
inhibition [6]: Active
Activity [7]: Non-Toxic
Activity (NCI-H1975 [8]): 16.78%
inhibition [9]: Active
inhibition [10]: Dde
